Reference: patent publication US20090047223A1, “Improvements in or Related to Organic Compoounds” (GIVAUDAN SA, priority 2005, published 2009)
Where a name gives a salt, the structure may show the parent alone. Read-outs that look alike come from different tables or passages of the source.

Assays:
[1] = Reduction of methanethiol (MeSH) in headspace, phosphate buffer pH 7, GC; settings: for reactivity towards MeSH / ability to bind MeSH (in words): aqueous environment; for % reduction of MeSH in the headspace: MeSH 100 μM, phosphate buffer pH 7, 1 h
Experimental: (§1) The compounds listed in Table 1 are dissolved to a final concentration of 100 μM, 200 μM and 500 μM in 1 ml of phosphate buffer at pH 7 in a closed GC-headspace vial. MeSH is added to a final concentration of 100 μM and the mixture is equilibrated for 1 h. Samples are heated to 75° C. and 1 ml of the headspace above the reaction mixture is injected onto a column suitable for separation of sulphur compounds (SPW1-sulfur, Supelco). The temperature program is set to 1 min initial temperature at 50° C., heating at a rate of 10° C./min to 100° C. and further heating at 20° C./min to 200° C. The headspace level of MeSH is compared to a blank sample, i.e. a sample without the active compound.

[2] = Reduction of allyl mercaptan, monobromobimane fluorescence; settings: 200 μM allyl mercaptan-solution, pH 7, 15 min
Experimental: The compounds given in Table 2 are dissolved in DMSO to a final concentration of 100 mM and serially diluted in the same solvent. Aliquots of the solutions of different active compounds (2.5 μl) are distributed to individual wells of a microtiter plate. 100 μl of a 200 μM allyl mercaptan-solution (in 50 mM phosphate buffer, pH 7) are added to each well and the plates are immediately sealed. After 15 min of incubation, the unreacted allyl mercaptan is derivatised by adding to each well of the microtiter plate 100 μl of a monobromobimane (obtained from Fluka, Buchs, Switzerland) stock solution (0.5 mM in 1 M NaCO3, pH 8.8). After 10 min the fluorescence in the wells of the microtiter plates is measured on a Flex-station (Molecular devices, Sunnyvale, Calif., USA) with an excitation wavelength of 385 nm and an emission wavelength of 480 nm. After the fluorescence determination, from all the wells the blank value containing only buffer and DMSO is subtracted. The fluorescence of control wells with allyl mercaptan and DMSO only is then compared to the fluorescence in wells containing potential allyl mercaptan trapping agents (compound 1 to 5) to calculate the inhibition in percent.

[3] = Reduction of methanethiol (MeSH) in saliva, headspace GC; settings: compound 500 μM, MeSH 200 μM
Experimental: as §1
The compounds given in Table 3 are dissolved in GC-headspace vials in saliva donations pooled form four donors at a concentration of 500 μM. After a conditioning period of 1 and 2.5 h respectively, MeSH is added at a concentration of 200 μM, and 1 hour later MeSH level in the headspace is determined as described in Example 8.

[4] = 500 μM, pH 7
Experimental: Samples of 0.50 ml are withdrawn at the indicated time intervals and extracted with MTBE (0.50 ml). The amount of released ethyl vanillin is determined by quantitative GC-analysis.

[5] = after 2½ h conditioning in pooled saliva
[6] = after 1 h conditioning in pooled saliva

SMILES | reactivity towards MeSH / ability to bind MeSH (in words) [1] | % reduction of MeSH in the headspace ([1]; compound 100 μM) [%] | % reduction of MeSH in the headspace ([1]; compound 200 μM) [%] | % reduction of MeSH in the headspace ([1]; compound 500 μM) [%] | % reduction of allyl mercaptan ([2]; test concentration 31.25 μM) [%] | % reduction of allyl mercaptan ([2]; test concentration 62.5 μM) [%] | % reduction of allyl mercaptan ([2]; test concentration 125 μM) [%] | % reduction of allyl mercaptan ([2]; test concentration 250 μM) [%] | % reduction of allyl mercaptan ([2]; test concentration 500 μM) [%] | % reduction of allyl mercaptan ([2]; test concentration 1000 μM) [%] | Reduction of MeSH (%) [3, 5] [%] | Reduction of MeSH (%) [3, 6] [%] | % of theory (released ethyl vanillin) ([4]; 30 min) [%] | conc. of released ethy vanillin ([4]; 30 min) [µM] | % of theory (released ethyl vanillin) ([4]; 60 min) [%] | conc. of released ethy vanillin ([4]; 60 min) [µM] | % of theory (released ethyl vanillin) ([4]; 120 min) [%] | conc. of released ethy vanillin ([4]; 120 min) [µM]
CC1CCC(C(C)C)C(OC(=O)/C=C/C(=O)O)C1 (stereo not shown) [B, reference compound] | low reactivity | 11.9 | 1.7 | 0 | – | – | – | – | – | – | – | – | – | – | – | – | – | –
CC1CCC(C(C)C)C(OC(=O)/C=C/C(=O)OCC(O)CO)C1 (stereo not shown) [Compound 1, 2,3-Dihydroxypropyl 2-isopropyl-5-methylcyclohexyl fumarate] | – | 81.5 | 73.7 | >90 | 0.1 | 9.9 | 22.5 | 43.2 | 68.8 | 86.0 | 40.5 | 72.7 | – | – | – | – | – | –
CCOC(=O)/C=C/C(=O)Oc1c(C)occc1=O [Compound 2, Ethyl 2-methyl-4-oxo-4H-pyran-3-yl fumarate] | – | >92 | >92 | >90 | 11.1 | 31.9 | 65.3 | 98.4 | 100.0 | 100.0 | 32.5 | 75.9 | – | – | – | – | – | –
CCOC(=O)/C=C/C(=O)Oc1ccc(C=O)cc1OCC [Compound 3, 2-Ethoxy-4-formylphenyl ethyl fumarate] | – | >90 | >92 | >90 | 12.8 | 32.7 | 74.5 | 99.8 | 100.0 | 100.0 | 73.3 | 36.2 | 38 | 192 | 47 | 235 | 62 | 310
CCOC(=O)/C=C/C(=O)Oc1ccccc1C(=O)OC [Compound 4, Methyl 2-((E)-3-(ethoxycarbonyl)acryloyloxy)benzoate] | – | >90 | >92 | >90 | 14.4 | 32.3 | 67.6 | 95.3 | 99.8 | 100.0 | 74.3 | 28.1 | – | – | – | – | – | –
CC1CCC(C(C)C)C(OC(=O)/C=C/C(=O)OCC(O)C(O)C(O)C(O)CO)C1 (stereo not shown) [Compound 5, 2,3,4,5,6-Pentahydroxyhexyl 2-isopropyl-5-methylcyclohexyl fumarate] | – | 71.6 | – | >90 | 1.0 | 8.1 | 19.3 | 38.4 | 64.4 | 89.3 | 75.1 | 48.2 | – | – | – | – | – | –
CCOC(=O)/C=C/C(=O)OCC=Cc1ccccc1 [Compound 6, Cinnamyl Ethyl Fumarate] | – | 45.8 | – | 85 | – | – | – | – | – | – | – | – | – | – | – | – | – | –
CC/C=C\CCOC(=O)/C=C/C(=O)OCC [Compound 7, Ethyl (Z)-hex-3-enyl fumarate] | – | 33 | 39.2 | 54.1 | – | – | – | – | – | – | – | – | – | – | – | – | – | –
CCCCCCOC(=O)/C=C/C(=O)OCCCCCC [Dihexyl fumarate (A), Dihexyl fumarate, reference compound] | very low reactivity | 4.3 | 1.9 | 10.9 | – | – | – | – | – | – | – | – | – | – | – | – | – | –
